This note sets out measurements from patent US7030145B2, “Pyridinyl derivatives for the treatment of depression” (Bristol-Myers Squibb Company, priority 2003, dated 2006).

Series [1] addresses T1, cloned human CRF-R1 receptors (Homo sapiens, UniProt P34998).
T1 construct: the coding region was amplifies by PCR from start to stop codons; expressed in transfected cells; membranes
T1 sequence (P34998 24-415): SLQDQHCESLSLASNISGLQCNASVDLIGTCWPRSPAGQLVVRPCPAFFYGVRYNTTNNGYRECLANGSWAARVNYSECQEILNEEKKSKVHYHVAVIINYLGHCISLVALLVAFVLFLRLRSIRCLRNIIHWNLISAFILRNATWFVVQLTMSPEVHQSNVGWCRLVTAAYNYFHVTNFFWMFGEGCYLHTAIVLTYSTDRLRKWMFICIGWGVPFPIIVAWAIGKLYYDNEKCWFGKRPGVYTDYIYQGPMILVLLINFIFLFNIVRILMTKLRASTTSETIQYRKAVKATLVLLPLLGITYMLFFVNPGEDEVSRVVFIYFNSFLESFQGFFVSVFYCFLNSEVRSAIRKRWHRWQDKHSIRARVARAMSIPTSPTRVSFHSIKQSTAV
Description: CRF-R1 receptor binding assay (inhibition of 125I-ovine-CRF binding to cell membranes). Details: key to activity (Ki class in the CRF assays): a: Ki≦100 nM; b: 100 nM<Ki≦500 nM; c: 500 nM<Ki≦5,000 nM; activity reported in percent inhibition at 10 μM. The settings on record: membranes of 293EBNA cells transfected with hCRFR1, class d = reported as percent inhibition at 10 μM, figures not given; for pKi: read-out: activity (Ki class in the CRF assays). The source says: The following is a description of the isolation of cell membranes containing cloned human CRF-R1 receptors for use in a standard binding assay as well as a description of the assay itself.
Messenger RNA was isolated from human hippocampus. […]. The mRNA was reverse transcribed using oligo (dt) 12–18 and the coding region was amplifies by PCR from start to stop codons. The resulting PCR fragment was cloned into the EcoRV site of pGEMV, from whence the insert was reclaimed using XhoI+XbaI and cloned into the XhoI+XbaI sites of vector pm3 as (which contains a CMV promoter, the SV′t′ splice and early poly A signals, an Eptein-Barr viral origin of replication, and a hygromycin selectable marker). The resulting expression vector, called phchCRFR was transfected in 293EBNA cells and cells retaining the episome were selected in the presence of […] hygromycin. Cells surviving 4 weeks of selection in hygromycin were pooled, adapted to growth in suspension and used to generate membranes for the binding assay described below. Individual aliquots containing approximately 1×10^8 of the suspended cells were then centrifuged to form a pellet and frozen. For the binding assay a frozen pellet described above containing 293EBNA cells transfected with hCRFR1 receptors is homogenized in 10 mL of ice cold tissue buffer (50 mM HEPES buffer pH 7.0, containing 10 MM MgCl2, 2 mM EGTA, 1 μg/mL apotinin, 1 μg/mL leupeptin and 1 μg/mL pepstatin). The homoginate is centrifuged at 40,000×g for 12 min and the resulting pellet rehomogenized in 10 mL of tissue buffer. After another centrifugation at 40,000×g for 12 min, the pellet is resuspended to a protein concentration of 360 μg/mL to be used in the assay.
Binding assays are performed in 96 well plates; each well having a 300 μL capacity. To each well is added 50 μL of test drug dilutions (final concentration of drugs range from 10^−10–10^−5 M), 100 μL of ^125I-ovine-CRF (^125I-o-CRF) (final concentration 150 pM) and 150 μL of the cell homoginate described above. Plates are then allowed to incubate at room temperature for 2 hours before filtering the incubate over GF/F filters (presoaked with 0.3% polyethyleneimine) using an appropriate cell harvester. Filters are rinsed 2 times with ice cold assay buffer before removing individual filters and assessing them for radioactivity on a gamma counter.
Curves of the inhibition of ^125I-o-CRF binding to cell membranes at various dilutions of test drug are analyzed by the iterative curve fitting program LIGAND [P. J. Munson and D. Rodbard, Anal. Biochem., 107:220 (1980), which provides Ki values for inhibition which are then used to assess biological activity. […]
Messenger RNA was isolated from human hippocampus. The mRNA was isolated from human hippocampus. The mRNA was reverse transcribed using oligo (dt) 12–18 and the coding region was amplifies by PCR from start to stop codons. The resulting PCR fragment was cloned into the EcoRV site of pGEMV, from whence the insert was reclaimed using XhoI+XbaI and cloned into the XhoI+XbaI sites of vector pm3 as (which contains a CMV promoter, the SV′t′ splice and early poly A signals, an Eptein-Barr viral origin of replication, and a hygromycin selectable marker). The resulting expression vector, called phchCRFR was transfected in 293EBNA cells and cells retaining the episome were selected in the presence of […] hygromycin. Cells surviving 4 weeks of selection in hygromycin were pooled, adapted to growth in suspension and used to generate membranes for the binding assay described below. […]
A frozen pellet described above containing 293EBNA cells transfected with hCRFR1 receptors or the rat frontal cortex tissue dissected from frozen rat brains was prepared as the source of membranes expressing CRF1 receptors used in binding assays. […]

pKi: −log10 of the molar value.

Usually melting point stands for the temperature, or range, at which the solid turns liquid. The term pKi denotes the negative decadic logarithm of the Ki, by convention in mol/L.

Take `COc1ccc(Nc2nc(C)ccc2S(=O)(=O)c2ccc(OCc3ccccc3OC)cc2)c(C)c1` [Example 1, {3-[4-(2-Methoxybenzyloxy)-benzenesulfonyl]-6-methylpyridin-2-yl}-(4-methoxy-2-methylphenyl)-amine]: the melting point lay within 70 to 72 °C. In addition, in series [1], the “activity (Ki class in the CRF assays)” value is “d”. In the same order, the values of `COc1cc(Cl)c(Nc2nc(C)ccc2S(=O)(=O)c2ccc(OCc3ccccc3OC)cc2)cc1F` [Example 2, (2-Chloro-5-fluoro-4-methoxyphenyl)-{3-[4-(2-methoxybenzyloxy)-benzenesulfonyl]-6-methylpyridin-2-yl}-amine] are 62 to 64 °C and “d”. In the same order, the values of `COc1ccccc1COc1ccc(S(=O)(=O)c2ccc(C)nc2Nc2cc(F)c(N(C)C)cc2Cl)cc1` [Example 3, 2-Chloro-5-fluoro-N^1-{3-[4-(2-methoxybenzyloxy)-benzenesulfonyl]-6-methylpyridin-2-yl}-N^4,N^4-dimethylbenzene-1,4-diamine] are 68 to 70 °C and “d”. The like results for `COc1ccccc1COc1ccc(S(=O)(=O)c2ccc(C)nc2Nc2cc(OC)c(OC)cc2C)cc1` [Example 4, (4,5-Dimethoxy-2-methylphenyl)-{3-[4-(2-methoxybenzyloxy)-benzenesulfonyl]-6-methylpyridin-2-yl}-amine] were, in that order, 62 to 66 °C and “d”. `COc1ccccc1COc1ccc(S(=O)(=O)c2ccc(C)nc2Nc2ccc(OC(F)F)cc2Cl)cc1` [Example 5, (2-Chloro-4-difluoromethoxyphenyl)-{3-[4-(2-methoxybenzyloxy)-benzenesulfonyl]-6-methylpyridin-2-yl}-amine] yielded a melting point of 124 to 125 °C. Further, the “activity (Ki class in the CRF assays)” value in series [1] is on record as “d”. The like results for `COc1ccccc1COc1ccc(S(=O)(=O)c2ccc(C)nc2Nc2cc(OC)c(OC)cc2Cl)cc1` [Example 6, (2-Chloro-4,5-dimethoxyphenyl)-{3-[4-(2-methoxybenzyloxy)-benzenesulfonyl]-6-methylpyridin-2-yl}-amine] were, in that order, 149 to 151 °C and “d”.

In turn, `COc1ccccc1COc1ccc(S(=O)(=O)c2ccc(C)nc2Nc2ccc(S(C)(=O)=O)cc2Cl)cc1` [Example 7, (2-Chloro-4-methanesulfonylphenyl)-{3-[4-(2-methoxybenzyloxy)-benzenesulfonyl]-6-methylpyridin-2-yl}-amine] registered a melting point of 100 to 102 °C. Moreover, the “activity (Ki class in the CRF assays)” value in series [1] is listed as “d”. The like results for `COc1ccccc1COc1ccc(S(=O)(=O)c2ccc(C)nc2Nc2ccc(Cl)cc2C#N)cc1` [Example 8, 5-Chloro-2-{3-[4-(2-methoxybenzyloxy)-benzenesulfonyl]-6-methylpyridin-2-ylamino}-benzonitrile] were, in that order, 178 to 180 °C and “d”. For the compound `COc1ccc(S(=O)(=O)c2ccc(C)nc2Nc2c(C)cc(C)cc2C)cc1` [Example 9, [3-(4-Methoxybenzenesulfonyl)-6-methylpyridin-2-yl]-(2,4,6-trimethylphenyl)-amine], the melting point was 165 to 167 °C. For the same compound, the negative-log Ki (pKi) in series [1] was 6.30 to 7.00. In the same order, the values of `Cc1cc(C)c(Nc2nc(C)ccc2S(=O)(=O)c2ccc(O)cc2)c(C)c1` [Example 10, 4-[6-Methyl-2-(2,4,6-trimethylphenylamino)-pyridine-3-sulfonyl]-phenol] are 226 to 228 °C and 5.30 to 6.30.

`Cc1cc(C)c(Nc2nc(C)ccc2S(=O)(=O)c2ccc(OCc3ccccc3)cc2)c(C)c1` [Example 11, [3-(4-Benzyloxybenzenesulfonyl)-6-methylpyridin-2-yl]-(2,4,6-trimethylphenyl)-amine]: the melting point is 158 to 160 °C. Also, in series [1], the pKi is not below 7.00.

Compound `CCOc1ccc(S(=O)(=O)c2ccc(C)nc2Nc2c(C)cc(C)cc2C)cc1` [Example 12, [3-(4-Ethoxybenzenesulfonyl)-6-methylpyridin-2-yl]-(2,4,6-trimethylphenyl)-amine] had a melting point of 157 to 159 °C. The “activity (Ki class in the CRF assays)” value in series [1] is recorded as “d”. Take `Cc1cc(C)c(Nc2nc(C)ccc2S(=O)(=O)c2ccc(OCCCC#N)cc2)c(C)c1` [Example 14, 4-{4-[6-Methyl-2-(2,4,6-trimethylphenylamino)-pyridine-3-sulfonyl]-phenoxy}-butyronitrile]: the melting point was in the range of 160 to 162 °C. The negative-log Ki (pKi) in series [1] was 5.30 to 6.30.

`Cc1cc(C)c(Nc2nc(C)ccc2S(=O)(=O)c2ccc(OCCCCC#N)cc2)c(C)c1` [Example 15, 5-{4-[6-Methyl-2-(2,4,6-trimethylphenylamino)-pyridine-3-sulfonyl]-phenoxy}-pentanenitrile] yielded a melting point of 115 to 116 °C. For the same compound, the pKi in series [1] is 6.30 to 7.00. In the same order, the values of `Cc1cc(C)c(Nc2nc(C)ccc2S(=O)(=O)c2ccc(OCCCO)cc2)c(C)c1` [Example 16, 3-{4-[6-Methyl-2-(2,4,6-trimethylphenylamino)-pyridine-3-sulfonyl]-phenoxy}-propan-1-ol] are 152 to 153 °C and 5.30 to 6.30. The like results for `CCOC(=O)COc1ccc(S(=O)(=O)c2ccc(C)nc2Nc2c(C)cc(C)cc2C)cc1` [Example 17, {4-[6-Methyl-2-(2,4,6-trimethylphenylamino)-pyridine-3-sulfonyl]-phenoxy}-acetic acid ethyl ester] were, in that order, 116 to 118 °C and 5.30 to 6.30. In the same order, the values of `CCC(Oc1ccc(S(=O)(=O)c2ccc(C)nc2Nc2c(C)cc(C)cc2C)cc1)C(=O)OC` (stereo not shown) [Example 18, 2-{4-[6-Methyl-2-(2,4,6-trimethylphenylamino)-pyridine-3-sulfonyl]-phenoxy}-butyric acid methyl ester] are 111 to 113 °C and 6.30 to 7.00. For the compound `Cc1cc(C)c(Nc2nc(C)ccc2S(=O)(=O)c2ccc(OCc3ccccn3)cc2)c(C)c1` [Example 19, {6-Methyl-3-[4-(pyridin-2-ylmethoxy)-benzenesulfonyl]-pyridin-2-yl}-(2,4,6-trimethylphenyl)-amine], the melting point lay within 182 to 184 °C. Further, the negative logarithm of the Ki (pKi) in series [1] was 6.30 to 7.00. On to `CCc1ccc(S(=O)(=O)c2ccc(C)nc2Nc2cc(C)c(C)cc2C)cc1` [Example 70, [3-(4-Ethylbenzenesulfonyl)-6-methylpyridin-2-yl]-(2,4,5-trimethylphenyl)-amine], for which the pKi in series [1] is not below 7.00.
